Laboratory results as given in PubChem BioAssay (NCI).
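All cell lines were grown in 96-well plates and treated with compound for 48 hours. TGI: total growth inhibition.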

What was measured:
Assay in all cases: growth of human tumour cells (NCI), 48 h
NCI-H460 lung = test system: NCI-H460 lung
HL-60(TB) leukemia = test system: HL-60(TB) leukemia
LOX IMVI melanoma = test system: LOX IMVI melanoma
COLO 205 colon = test system: COLO 205 colon
SNB-75 CNS = test system: SNB-75 CNS
A549 NSCLC = test system: A549 NSCLC
SF-295 CNS = test system: SF-295 CNS
HCT-15 colon = test system: HCT-15 colon
MALME-3M melanoma = test system: MALME-3M melanoma
SW-620 colon = test system: SW-620 colon
OVCAR-5 ovarian = test system: OVCAR-5 ovarian
ACHN renal = test system: ACHN renal
SF-539 CNS = test system: SF-539 CNS
M14 melanoma = test system: M14 melanoma
M19-MEL melanoma = test system: M19-MEL melanoma
UO-31 renal = test system: UO-31 renal
RXF 393 renal = test system: RXF 393 renal
UACC-62 melanoma = test system: UACC-62 melanoma
MDA-N = test system: MDA-N
NCI/ADR-RES ovarian = test system: NCI/ADR-RES ovarian

Row | SMILES | TGI (NCI-H460 lung) [µM] | TGI (HL-60(TB) leukemia) [µM] | TGI (LOX IMVI melanoma) [µM] | TGI (COLO 205 colon) [µM] | TGI (SNB-75 CNS) [µM] | TGI (A549 NSCLC) [µM] | TGI (SF-295 CNS) [µM] | TGI (HCT-15 colon) [µM] | TGI (MALME-3M melanoma) [µM] | TGI (SW-620 colon) [µM] | TGI (OVCAR-5 ovarian) [µM] | TGI (ACHN renal) [µM] | TGI (SF-539 CNS) [µM] | TGI (M14 melanoma) [µM] | TGI (M19-MEL melanoma) [µM] | TGI (UO-31 renal) [µM] | TGI (RXF 393 renal) [µM] | TGI (UACC-62 melanoma) [µM] | TGI (MDA-N) [µM] | TGI (NCI/ADR-RES ovarian) [µM]
1 | c1cnc2c(c1)-n1cccc1C1(CCSC1)NN2 (stereo not drawn) | > 100 | > 100 | > 100 | > 100 | > 100 | > 100 | > 100 | > 100 | > 100 | > 100 | > 100 | > 100 | > 100 | > 100 | > 100 | > 100 |  |  |  | 
2 | CSc1ccc(OCC2OC2O)cc1 (stereo not drawn) | > 100 | > 83.5 | > 31.6 | 35.5 | > 100 | > 100 | > 100 | > 54.2 | > 100 | > 30.7 | > 100 | > 100 | > 100 | > 100 | > 100 | > 100 | > 100 | > 100 |  | 
3 | COC(=O)C1=CC2CC1C(S(=O)(=O)c1ccccc1)C2S(=O)(=O)c1ccccc1 (stereo not drawn) | 51.5 | 7.29 | 27.1 | 22 |  | 69.3 | 53.8 | 26.8 | 23.5 | 21 | 28.3 |  |  | 25.5 | 42.2 | 27.7 |  | 67.9 |  | 
4 | N#Cc1cc([N+](=O)[O-])ccc1NC(=O)C(F)(F)F | > 57.4 | > 100 | > 49.7 | 44.6 | > 95.9 | > 100 | > 100 | > 58.5 | > 100 | > 55.8 | > 100 | > 100 | > 100 | > 100 | > 100 | > 100 | > 100 | > 100 |  | 
5 | NC1=NN(c2ccccc2)C(=O)C1/C(=N\NC(=O)c1cc2ccccc2cc1O)C(=O)Nc1cccc(C(F)(F)F)c1 (stereo not drawn) | > 100 | 27.6 | > 100 | > 100 | > 100 | > 100 | > 100 |  | > 100 | > 100 | 68.4 | > 100 |  | > 100 | > 100 | > 100 | > 100 | > 100 |  | 
6 | CCC12CCCNC1c1c(n(C)c3ccccc13)C(C(=O)OC)C2 (stereo not drawn) | > 275 | > 275 | > 275 | 82.5 |  | > 275 | 124 | > 275 | > 275 | > 275 | 208 | 257 | > 275 |  | 194 |  | 153 | > 275 |  | 
7 | Cc1cc(C)n2c(-c3ccccc3)c(C)cc2n1 | > 100 | 50.4 | > 100 | > 100 | 59.8 | > 100 | > 100 | > 100 | > 100 | > 100 | > 100 | > 100 | 73.4 | > 100 | > 100 | > 100 | > 100 | > 100 |  | 
8 | CC1(c2cccc(N)c2)C2C(=O)NC(=O)C1C(=O)NC2=O (stereo not drawn) | > 100 | 43.2 | 81.1 | 50.2 | 73.2 | > 100 | 58.8 | > 100 | 95 | > 100 | > 100 | 78.5 | 81.7 | > 100 | > 100 | 67.8 | 71.2 | > 100 |  | 
9 | CC1=NN2C(c3ccc(C)cc3)=CSC2=NC(C)(C)C1 | > 100 | > 100 | > 100 | > 100 | > 100 | > 100 | > 100 | > 100 | > 100 | > 100 | > 100 | > 100 | > 100 | > 100 | > 100 | > 100 | > 100 | > 100 |  | 
10 | Cc1ccc(S(=O)(=O)N2c3ccccc3[C@H]3CCC=C[C@H]32)cc1 | > 64.7 | 28.8 | 56.5 | 24.6 | 42.5 | > 100 | 32.4 | > 69.1 | 39 | 47.7 | > 100 | > 93.3 | 34 | 43.3 | 37.8 | 34.9 | 19 | 42.3 | > 100 | 
11 | COc1ccc(N2C(=O)c3c(c4[nH]c5ccc(OC)cc5c4c4ccc(C(C)(C)C)cc34)C2=O)cc1 | > 100 | > 100 |  | > 100 | > 100 | > 100 | > 100 | > 100 | > 100 |  | > 100 | > 100 | > 100 | > 100 | > 100 | > 100 |  |  |  | 
12 | Cc1ccc2c(c1)C1C(CO2)C(c2ccccc2)=NN1c1ccccc1 (stereo not drawn) | > 100 | > 100 | > 100 | > 100 | > 100 | > 100 | > 100 |  | > 100 | > 100 | > 100 | > 100 | > 100 |  | > 100 | > 100 | > 100 |  |  | 
13 | C[C@H](NC(=O)n1c2ccccc2c2ccccc21)C(=O)O | > 100 | > 100 | > 100 | > 100 |  | > 100 | > 100 | > 100 | > 100 | > 100 | > 100 | > 100 | > 100 |  | > 100 |  | > 100 | > 100 |  | 
14 | NC(=O)C(=CNC(=S)Nc1ccc(Cl)c(Cl)c1)C(N)=O | > 100 | > 100 | > 100 | > 100 | > 100 | > 100 | > 100 | > 100 | > 100 | > 100 | > 100 | > 100 | > 100 | > 100 |  | > 73.6 | > 95.7 | > 100 | > 100 | > 100
